Assay results: US5480971A, “Peralkylated oligopeptide mixtures” (Houghten Pharmaceuticals, Inc., priority 1994, dated 1996)
pIC50: −log10 of the molar value. ≈ marks a conversion by molar mass, not a printed value. Square brackets hold non-standard residues; d marks the D form. Ends that are not written are not given here. Peptide text beside a SMILES is read from it. * marks the point of attachment. X1 = C[N+](C)(C)[C@@H](Cc1ccccc1)C(=O)*; X2 = CC(C)C[C@@H](C(=O)*)[N+](C)(C)C; NMeF = CN[C@@H](Cc1ccccc1)C(=O)O; NMeI = CC[C@H](C)[C@H](NC)C(=O)O

Experiments:
[1] = tested on: Staphylococcus aureus (ATCC 29213); assay: microbe, parasite or virus in culture; conditions: for S. aureus MIC: no change in OD620 between time 0 and 21 hours; for MIC Value: Table 4, minimum concentration needed to inhibit about 100 percent bacterial growth; for S. aureus IC50: Example 8, individual peptides; for MIC: Staphylococcus aureus, ATCC29213, read-out: MIC Value
Description: Concentrations of those 5X permethylated peptide mixtures that inhibited cellular growth by 50 percent (IC50) values were determined.
This culture was reinoculated and incubated at 37° C. to reach the exponential phase of bacterial growth; i.e., a final bacterial suspension containing about 10^5 to 5×10^5 colony-forming units (CFU)/ml. The concentration of cells was established by plating 100 μl of different dilutions of the culture solution (e.g., 10^-2, 10^-3 and 10^-4) onto solid agar plates. Following an overnight (about 18 hours) incubation at 37° C., the CFU thus formed were counted on each agar plate.
96-Well tissue culture plates were utilized, with eight wells per plate containing only medium as control blanks, whereas eight other wells contained medium plus cells as a positive growth control. These controls were used to detect possible medium contamination and to provide a measure of uninhibited growth of the microorganisms.
For determination of IC50 values (concentrations necessary to inhibit 50 percent growth of bacteria), peralkylated oligopeptide sets were added to the bacterial suspension at concentrations noted before. The plates were incubated overnight (about 18 hours) at 37° C., and the optical density (OD) determined at 620 nm after different times of incubation. IC50 values were then determined from the OD data.
Assays using S. aureus were carried out as described before. […] To initiate the exponential phase of bacterial growth prior to the assay, a sample of bacteria grown overnight (about 18 hours) at 37° C. in cation-adjusted Mueller Hinton broth (CAMM, for E. coli and S. aureus--Becton Dickinson Microbiology Systems, Cockeysville, Md.), or Brain Heart Infusion broth (BHI, for S. sanguis), was reinoculated in a 2X broth and incubated at 37° C. MRSA was grown at 35° C. in cation-adjusted MH broth in a similar manner. Prior to the assay, two colonies of newly grown C. albicans culture were inoculated in 5ml of phosphate buffer saline (PBS-35mM phosphate buffer, 0.15M NaCl-pH 7.0), and diluted in yeast medium broth. The bacteria and yeast suspensions were adjusted turbidimetrically so that a final concentration of 10^5 to 5×10^5 colony-forming units (CFU)/ml was used in all assays.
The plates were then incubated overnight at 37° C. […] The concentration necessary to inhibit 50 percent bacterial growth (IC50) was then calculated using the software program […] (ISI, San Diego, Calif.). […] In a similar manner, the plates containing C. albicans suspension were incubated for 48 hours at 30° C.

[2] = tested on: human red blood cells (RBC's); assay: Hemolytic activity on human red blood cells; format: cell-based; conditions: 0.25 percent RBC suspension, one hour at 37° C.
Description: Hemolytic activities of the peptides were determined using human red blood cells (RBC's). The assays were carried out in 96-well tissue culture plates against a 0.25 percent RBC suspension as described in Blondelie et al., Biochim. Biophys. Acta, 1202:331-336 (1993), incorporated herein by reference. Briefly, individual permethylated peptides or peptide mixtures were added to the RBC solution at concentrations derived from serial two-fold dilutions varying from […]. Following a one hour incubation at 37° C., the plates were centrifuged at 2800 rpm for 5 minutes. The supernatant was separated from the pellet and its OD measured at 414 nm. Triton (1 percent) and PBS were used as 100 percent and 0 percent hemolysis controls, respectively.

[3] = tested on: Methicillin-resistant Staphylococcus aureus (MRSA) ATCC 33591; assay: Antimicrobial activity against MRSA (growth inhibition); format: cell-based; conditions: for MRSA MIC: no change in OD620 between time 0 and 21 hours
Description: (§1) Assays using S. aureus were carried out as described before. Methicillin-resistant Staphylococcus aureus (MRSA) ATCC 33591, Streptococcus sangus ATCC 10566, Escherichia coli ATCC 25922 and Candida albicans ATCC 10231 were used in the bioassays (ATCC, Rockville, Md.). To initiate the exponential phase of bacterial growth prior to the assay, a sample of bacteria grown overnight (about 18 hours) at 37° C. in cation-adjusted Mueller Hinton broth (CAMM, for E. coli and S. aureus--Becton Dickinson Microbiology Systems, Cockeysville, Md.), or Brain Heart Infusion broth (BHI, for S. sanguis), was reinoculated in a 2X broth and incubated at 37° C. MRSA was grown at 35° C. in cation-adjusted MH broth in a similar manner. Prior to the assay, two colonies of newly grown C. albicans culture were inoculated in 5ml of phosphate buffer saline (PBS-35mM phosphate buffer, 0.15M NaCl-pH 7.0), and diluted in yeast medium broth. The bacteria and yeast suspensions were adjusted turbidimetrically so that a final concentration of 10^5 to 5×10^5 colony-forming units (CFU)/ml was used in all assays.
(§2) The assays were carried out in 96-well tissue culture plates (Costar, Pleasanton, Calif.) as described in Blondelie et al., Biochemistry, 31:12688-12694 (1992), incorporated herein by reference. In brief, the bacterial suspension was added to an equal volume of the mixture of permeythylated compounds diluted in H2 O at concentrations derived from serial two-fold dilutions varying from 2500 μg/ml to 1 μg/ml. The plates were then incubated overnight at 37° C. The relative percent growth found for each compound (or mixture of compounds) was then determined by the optical density at 620 nm (OD620) using a Titertek Multiskan Plus apparatus (Flow Laboratories, McLean, Va.). The concentration necessary to inhibit 50 percent bacterial growth (IC50) was then calculated using the software program […] (ISI, San Diego, Calif.). […] In a similar manner, the plates containing C. albicans suspension were incubated for 48 hours at 30° C.

[4] = tested on: Streptococcus sangus ATCC 10566; assay: Assays against S. sanguis (growth inhibition); format: cell-based, Streptococcus sanguis; conditions: for S. sanguis IC50 / S. sanguis MIC: Table 6
Description: The permethylated amino acid and peptides were screened against S. aureus and Streptoccus sanguis, as described below, and IC50 and MIC (minimum inhibitory concentration; minimum concentration needed to inhibit about 100 percent bacterial growth) values were determined. […]
as §1, §2

[5] = Merck Index, 10th ed.; cited from earlier work

Compound | % hemolysis at 350 μg/ml [2] | S. aureus IC50 [1] | S. aureus MIC [1] | MRSA IC50 [3] | MRSA MIC [3] | S. sanguis IC50 [4] | S. sanguis MIC [4] | other results
CNC(=O)[C@H](Cc1ccccc1)N(C)C(=O)[C@H](Cc1ccccc1)N(C)C(=O)[C@H](Cc1ccccc1)N(C)C(=O)[C@H](Cc1ccccc1)N(C)C(=O)[C@H](Cc1ccccc1)N(C)C(=O)[C@H](Cc1ccccc1)[N+](C)(C)C [PerA-FFFFFF, PerM-PhePhePhePhePhePhe] (X1-[NMeF][NMeF][NMeF][NMeF][NMeF]-NHMe) | 16% |  |  |  |  |  |  | S. aureus MIC ([1]; listed as permethylated FFFFFF-NH2): lower than 15 μg/ml
N-acetyl hexaPhe amide [N-Ac-hexaPhe, reference compound] |  |  |  |  |  |  |  | MIC Value [1]: > 500 µM
C[N+](C)(C)[C@@H](Cc1ccccc1)C(=O)N[C@@H](Cc1ccccc1)C(=O)N[C@@H](Cc1ccccc1)C(=O)N[C@@H](Cc1ccccc1)C(=O)N[C@@H](Cc1ccccc1)C(=O)N[C@@H](Cc1ccccc1)C(N)=O [reference compound] (X1-FFFFF-NH2) |  | > 250 µg/mL |  |  |  |  |  | 
PerM-PhePhePhePheHisPhe (FFFFHF; also: permethylated) [PerM-FFFFHF] | 3% | 11 µg/mL | 15 to 21 µg/mL | 18 µg/mL | 21 to 42 µg/mL | 19 µg/mL | 30 to 40 µg/mL | 
CC[C@H](C)[C@@H](C(=O)N(C)[C@@H](Cc1ccccc1)C(=O)N(C)[C@@H](Cc1ccccc1)C(=O)N(C)[C@@H](Cc1ccccc1)C(=O)NC)N(C)C(=O)[C@H](Cc1ccccc1)N(C)C(=O)[C@H](Cc1ccccc1)[N+](C)(C)C [PerM-FFIFFF, PerM-PhePheIlePhePhePhe] (X1-[NMeF][NMeI][NMeF][NMeF][NMeF]-NHMe) | 0% |  |  |  |  |  |  | S. aureus MIC ([1]; listed as permethylated FFIFFF-NH2): lower than 15 μg/ml
PerM-LeuPhePhePheHisPhe (LFFFHF; also: permethylated) [PerM-LFFFHF] | 4% | 12 µg/mL | 21 to 31 µg/mL | 13 µg/mL | 15 to 21 µg/mL | 19 µg/mL | 30 to 40 µg/mL | 
PerM-LeuPhePhePhePheHis (LFFFFH; also: permethylated) [PerM-LFFFFH] | 3% | 13 µg/mL | 21 to 42 µg/mL | 16 µg/mL | 21 to 42 µg/mL | 22 µg/mL | 30 to 40 µg/mL | 
C[C@]12CC[C@H]3[C@@H](CCC4=CC(=O)CC[C@@]43C)[C@@H]1CC[C@@H]2O [testosterone] |  |  |  |  |  |  |  | solubility in water [5]: insoluble in water
PerM-LeuPheIlePhePheHis (LFIFFH; also: permethylated) [PerM-LFIFFH] | 1% | 12 µg/mL | 21 to 31 µg/mL | 20 µg/mL | 25 to 42 µg/mL | 19 µg/mL | 30 to 40 µg/mL | 
CC[C@H](C)[C@@H](C(=O)N(C)[C@@H](Cc1ccccc1)C(=O)N(C)[C@@H](Cc1ccccc1)C(=O)N(C)[C@@H](Cc1ccccc1)C(=O)NC)N(C)C(=O)[C@H](Cc1ccccc1)N(C)C(=O)[C@H](CC(C)C)[N+](C)(C)C [PerM-LFIFFF, PerM-LeuPheIlePhePhePhe] (X2-[NMeF][NMeI][NMeF][NMeF][NMeF]-NHMe) | 12% |  |  |  |  |  |  | S. aureus MIC ([1]; listed as permethylated LFIFFF-NH2): lower than 15 μg/ml
PerM-LeuPheIlePheHisPhe (LFIFHF; also: permethylated) [PerM-LFIFHF] | 7% | 12 µg/mL | 21 to 31 µg/mL | 14 µg/mL | 15 to 21 µg/mL | 13 µg/mL | 20 to 40 µg/mL | 
CNC(=O)[C@H](Cc1ccccc1)[N+](C)(C)C [PerA-F, permethylated Phe N-methylamide] |  |  |  |  |  |  |  | MIC Value [1]: > 500 µM; MIC Value ([4]; Table 5): > 500 µM; pIC50 ([4]; Table 5, average results): < 3.30
CC[C@H]1OC(=O)[C@H](C)[C@@H](O[C@H]2C[C@@](C)(OC)[C@@H](O)[C@H](C)O2)[C@H](C)[C@@H](O[C@@H]2O[C@H](C)C[C@H](N(C)C)[C@H]2O)[C@](C)(O)C[C@@H](C)C(=O)[C@H](C)[C@@H](O)[C@]1(C)O [Erythromycin, reference compound] |  |  |  |  |  |  |  | MIC [1]: 0.5 µM (≈ 0.367 µg/mL)
PerM-PhePheIlePhePheHis (FFIFFH; also: permethylated) [PerM-FFIFFH] | 0% | 14 µg/mL | 31 to 42 µg/mL | 19 µg/mL | 21 to 42 µg/mL | 18 µg/mL | 30 to 40 µg/mL | 
CNC(=O)[C@H](Cc1ccccc1)N(C)C(=O)[C@H](Cc1ccccc1)N(C)C(=O)[C@H](Cc1ccccc1)N(C)C(=O)[C@H](Cc1ccccc1)N(C)C(=O)[C@H](Cc1ccccc1)N(C)C(=O)[C@H](CC(C)C)[N+](C)(C)C [PerM-LFFFFF, PerM-LeuPhePhePhePhePhe] (X2-[NMeF][NMeF][NMeF][NMeF][NMeF]-NHMe) | 10% |  |  |  |  |  |  | 
Cc1onc(-c2ccccc2)c1C(=O)N[C@@H]1C(=O)N2[C@@H]1SC(C)(C)[C@@H]2C(=O)O [Oxacillin, reference compound] |  |  |  |  |  |  |  | MIC [1]: 0.125 µM (≈ 0.0502 µg/mL)
